Measurements reported in patent publication US10456407B2, “Combination therapy for treating cancer” (Epizyme, Inc., priority 2015, dated 2019).

Tested on: OCI-Ly19 cells
Test: RT2 Glucocorticoid signaling PCR array, OCI-LY19 (Table 4a, printed OCT) cell line
Assay type: cell-based
Conditions: vs DMSO; for ΔΔCT, ADARB1: gene ADARB1; for ΔΔCT, AK2: gene AK2; for ΔΔCT, ANGPTL4: gene ANGPTL4; for ΔΔCT, ARID68: gene ARID68; for ΔΔCT, ASPH: gene ASPH; for ΔΔCT, ATF4: gene ATF4; for ΔΔCT, BCL6: gene BCL6; for ΔΔCT, CEBPB: gene CEBPB; for ΔΔCT COL4A2: gene COL4A2; for ΔΔCT, CREB3L4: gene CREB3L4; for ΔΔCT CTGF: gene CTGF; for ΔΔCT, DDIT4: gene DDIT4; for ΔΔCT, DUSP1: gene DUSP1; for ΔΔCT, EHD3: gene EHD3; for ΔΔCT, FK8PS: gene FK8PS; for ΔΔCT, FOSL2: gene FOSL2; for ΔΔCT, GDPD1: gene GDPD1; for ΔΔCT GLUL: gene GLUL; for ΔΔCT, H6PD: gene H6PD; for ΔΔCT, HNRPLL: gene HNRPLL; for ΔΔCT, KLF9: gene KLF9; for ΔΔCT, KLF13: gene KLF13; for ΔΔCT, LOX: gene LOX; for ΔΔCT MERTK: gene MERTK; for ΔΔCT MTZA: gene MTZA; for ΔΔCT, NFKBIA: gene NFKBIA; for ΔΔCT, NR3C1: gene NR3C1; for ΔΔCT PDCC7: gene PDCC7; for ΔΔCT PDGFRB: gene PDGFRB; for ΔΔCT, PDP1: gene PDP1; for ΔΔCT, PIK3R1: gene PIK3R1; for ΔΔCT, PLEKHF1: gene PLEKHF1; for ΔΔCT, POU2F1: gene POU2F1; for ΔΔCT, POU2F2: gene POU2F2; for ΔΔCT, RASA3: gene RASA3; for ΔΔCT, RHOB: gene RHOB; for ΔΔCT, SESN1: gene SESN1; for ΔΔCT, SGK1: gene SGK1; for ΔΔCT, SLC10A6: gene SLC10A6; for ΔΔCT, SLC19A2: gene SLC19A2; for ΔΔCT, SLC22A5: gene SLC22A5; for ΔΔCT, SNTA1: gene SNTA1; for ΔΔCT, SPHK1: gene SPHK1; for ΔΔCT, STAT5A: gene STAT5A; for ΔΔCT, STAT5B: gene STAT5B; for ΔΔCT, TNFAIP3: gene TNFAIP3; for ΔΔCT, TSC22D3: gene TSC22D3; for ΔΔCT, USP2: gene USP2; for ΔΔCT, USPS4: gene USPS4; for ΔΔCT, VDR: gene VDR; for ΔΔCT, ZHX3: gene ZHX3; for ΔΔCT, ZNF281: gene ZNF281

## C[C@]12C=CC(=O)C=C1CC[C@@H]1[C@@H]2[C@@H](O)C[C@@]2(C)[C@H]1CC[C@]2(O)C(=O)CO [Prednisolone, prednisolone]
  ΔΔCT, ADARB1: −0.049
  ΔΔCT, AK2: −0.063
  ΔΔCT, ANGPTL4: −0.754
  ΔΔCT, ARID68: −0.079
  ΔΔCT, ASPH: 0.346
  ΔΔCT, ATF4: 0.456
  ΔΔCT, BCL6: 0.239
  ΔΔCT, CEBPB: 0.686
  ΔΔCT COL4A2: 1.601
  ΔΔCT, CREB3L4: 0.152
  ΔΔCT CTGF: −1.080
  ΔΔCT, DDIT4: −1.173
  ΔΔCT, DUSP1: 0.164
  ΔΔCT, EHD3: −0.773
  ΔΔCT, FK8PS: −0.873
  ΔΔCT, FOSL2: −0.480
  ΔΔCT, GDPD1: 1.130
  ΔΔCT GLUL: −0.090
  ΔΔCT, H6PD: −0.483
  ΔΔCT, HNRPLL: −0.156
  ΔΔCT, KLF9: −1.571
  ΔΔCT, KLF13: −0.075
  ΔΔCT, LOX: −1.179
  ΔΔCT MERTK: −0.277
  ΔΔCT MTZA: −0.169
  ΔΔCT, NFKBIA: 0.043
  ΔΔCT, NR3C1: −0.286
  ΔΔCT PDCC7: 4.571
  ΔΔCT PDGFRB: −2.242
  ΔΔCT, PDP1: −0.422
  ΔΔCT, PIK3R1: −0.119
  ΔΔCT, PLEKHF1: 0.139
  ΔΔCT, POU2F1: 0.048
  ΔΔCT, POU2F2: −0.574
  ΔΔCT, RASA3: 0.009
  ΔΔCT, RHOB: −1.763
  ΔΔCT, SESN1: 0.041
  ΔΔCT, SGK1: −1.154
  ΔΔCT, SLC10A6: −0.369
  ΔΔCT, SLC19A2: 0.410
  ΔΔCT, SLC22A5: 0.236
  ΔΔCT, SNTA1: 0.119
  ΔΔCT, SPHK1: 0.022
  ΔΔCT, STAT5A: −0.064
  ΔΔCT, STAT5B: 0.330
  ΔΔCT, TNFAIP3: 0.250
  ΔΔCT, TSC22D3: −1.695
  ΔΔCT, USP2: −0.585
  ΔΔCT, USPS4: 0.286
  ΔΔCT, VDR: −0.730
  ΔΔCT, ZHX3: −0.730
  ΔΔCT, ZNF281: 0.871

## CCN(c1cc(-c2ccc(CN3CCOCC3)cc2)cc(C(=O)NCc2c(C)cc(C)[nH]c2=O)c1C)C1CCOCC1 [Compound 44]
  ΔΔCT, ADARB1: −0.789
  ΔΔCT, AK2: −0.017
  ΔΔCT, ANGPTL4: −0.305
  ΔΔCT, ARID68: 0.232
  ΔΔCT, ASPH: −0.584
  ΔΔCT, ATF4: 0.124
  ΔΔCT, BCL6: −1.395
  ΔΔCT, CEBPB: 0.390
  ΔΔCT COL4A2: 0.309
  ΔΔCT, CREB3L4: −0.376
  ΔΔCT CTGF: −0.052
  ΔΔCT, DDIT4: −0.749
  ΔΔCT, DUSP1: −0.395
  ΔΔCT, EHD3: −1.081
  ΔΔCT, FK8PS: −0.319
  ΔΔCT, FOSL2: −0.226
  ΔΔCT, GDPD1: −0.020
  ΔΔCT GLUL: −0.745
  ΔΔCT, H6PD: −0.915
  ΔΔCT, HNRPLL: −0.346
  ΔΔCT, KLF9: −1.215
  ΔΔCT, KLF13: −0.452
  ΔΔCT, LOX: −0.733
  ΔΔCT MERTK: −0.805
  ΔΔCT MTZA: −0.118
  ΔΔCT, NFKBIA: 0.019
  ΔΔCT, NR3C1: −0.023
  ΔΔCT PDCC7: 0.024
  ΔΔCT PDGFRB: 0.934
  ΔΔCT, PDP1: −0.518
  ΔΔCT, PIK3R1: −0.274
  ΔΔCT, PLEKHF1: −0.736
  ΔΔCT, POU2F1: −0.120
  ΔΔCT, POU2F2: 0.031
  ΔΔCT, RASA3: −0.075
  ΔΔCT, RHOB: −1.378
  ΔΔCT, SESN1: −0.253
  ΔΔCT, SGK1: −0.458
  ΔΔCT, SLC10A6: −1.185
  ΔΔCT, SLC19A2: −0.211
  ΔΔCT, SLC22A5: −0.367
  ΔΔCT, SNTA1: −0.908
  ΔΔCT, SPHK1: 0.016
  ΔΔCT, STAT5A: 0.113
  ΔΔCT, STAT5B: −0.121
  ΔΔCT, TNFAIP3: 0.317
  ΔΔCT, TSC22D3: −0.671
  ΔΔCT, USP2: −2.822
  ΔΔCT, USPS4: 0.165
  ΔΔCT, VDR: −0.553
  ΔΔCT, ZHX3: −0.394
  ΔΔCT, ZNF281: 0.531
Gene IL1RN
  ΔΔCT, IL1RN: −1.244
Gene ZFP36
  ΔΔCT, ZFP36: 0.427
